In series [1] the test system is bicistronic HCV replicon (replicon RNA, GenBank Accession No. AJ242654). Nature of the series: HCV Replicon Assay. It is filed as cell-based. The note with it: Hepatitis C virus, 72 h, read-out: Replicon IC50.

Bounds are passed on as bounds.

On to `CC(C)c1ccc2c(C#N)c(-c3ccc(S(=O)(=O)NC(CF)CF)cn3)n(C3CCCC3)c2c1` [compound 457, 6-[3-cyano-1-cyclopentyl-6-(propan-2-yl)-1H-indol-2-yl]-N-(1,3-difluoropropan-2-yl)pyridine-3-sulfonamide], for which the melting point is 163 to 172 °C. Besides, in series [1], the IC50 is less than 500 nM.
The matching figures for `Cc1ccc2c(C#N)c(-c3ccc(S(=O)(=O)N[C@@H](C)C(F)(F)F)cn3)n(C3CCCCC3)c2c1` [compound 354, 6-(3-cyano-1-cyclohexyl-6-methyl-1H-indol-2-yl)-N-[(2S)-1,1,1-trifluoropropan-2-yl]pyridine-3-sulfonamide]: 207 to 212 °C and less than 500 nM.
As to `N#Cc1c(-c2ccc(S(=O)(=O)NC3CC(F)(F)C3)cn2)n(C2CCC2)c2cc(Cl)ccc12` [compound 244, 6-(6-chloro-3-cyano-1-cyclobutyl-1H-indol-2-yl)-N-(3,3-difluorocyclobutyl)pyridine-3-sulfonamide], the melting point was 135 to 138 °C. Moreover, the IC50 in series [1] was 2000 to 5000 nM.
Turning to `Cc1cc2c(cc1F)c(C#N)c(-c1ccc(S(=O)(=O)NC(C)(C)C)cn1)n2C1CCCC1` [compound 643, N-tert-butyl-6-(3-cyano-1-cyclopentyl-5-fluoro-6-methyl-1H-indol-2-yl)pyridine-3-sulfonamide], the melting point was in the range of 208 to 209 °C. Further, the half-maximal inhibitory concentration (IC50) in series [1] was less than 500 nM.
Turning to `Cc1cc2c(cc1F)c(C#N)c(-c1ccc(S(=O)(=O)N[C@@H](C)C(F)(F)F)c(C)n1)n2C1CCCC1` [compound 868, 6-(3-cyano-1-cyclopentyl-5-fluoro-6-methyl-1H-indol-2-yl)-2-methyl-N-[(2S)-1,1,1-trifluoropropan-2-yl]pyridine-3-sulfonamide], the melting point fell in the range of 206 to 211 °C. Further, the IC50 in series [1] is less than 500 nM.
For `C[C@@H](NS(=O)(=O)c1ccc(-c2c(C#N)c3cc(C(F)F)ccc3n2C2CCCC2)nc1)C(F)(F)F` [compound 538, 6-[3-cyano-1-cyclopentyl-5-(difluoromethyl)-1H-indol-2-yl]-N-[(2R)-1,1,1-trifluoropropan-2-yl]pyridine-3-sulfonamide], in that order: 186 to 188 °C and less than 500 nM.
For `Cc1ccc2c(c1)c(C#N)c(-c1ncc(S(=O)(=O)N[C@@H](C)C(F)(F)F)cn1)n2C1CCCC1` [compound 391, 2-(3-cyano-1-cyclopentyl-5-methyl-1H-indol-2-yl)-N-[(2S)-1,1,1-trifluoropropan-2-yl]pyrimidine-5-sulfonamide], in that order: 180 to 185 °C and less than 500 nM.
Turning to `CC(=O)c1cc2c(cc1F)c(C#N)c(-c1ccc(S(=O)(=O)N[C@@H](C)C(F)(F)F)cn1)n2-c1ncccn1` [compound 907, 6-[6-acetyl-3-cyano-5-fluoro-1-(pyrimidin-2-yl)-1H-indol-2-yl]-N-[(2S)-1,1,1-trifluoropropan-2-yl]pyridine-3-sulfonamide], the melting point was 220 to 221 °C. Further, the IC50 in series [1] was less than 500 nM.
`C[C@@H](NS(=O)(=O)c1ccc(-c2c(C#N)c3cc(F)c(C4CC4)cc3n2C2CCCC2)nc1)C(F)(F)F` [compound 662, 6-(3-cyano-1-cyclopentyl-6-cyclopropyl-5-fluoro-1H-indol-2-yl)-N-[(2R)-1,1,1-trifluoropropan-2-yl]pyridine-3-sulfonamide] showed a melting point of 180 to 181 °C. Besides, the IC50 in series [1] is less than 500 nM.
The matching figures for `CCc1cc2c(cc1F)c(C#N)c(-c1ccc(S(=O)(=O)N[C@@H](C)C(F)(F)F)cn1)n2-c1cncc(Cl)c1` [compound 983, 6-[1-(5-chloropyridin-3-yl)-3-cyano-6-ethyl-5-fluoro-1H-indol-2-yl]-N-[(2S)-1,1,1-trifluoropropan-2-yl]pyridine-3-sulfonamide]: 107 to 109 °C and less than 500 nM.
The compound `N#Cc1c(-c2ncc(S(=O)(=O)NC(CF)CF)cn2)n(CC2CC2)c2cc(CC(F)F)ccc12` [compound 621, 2-[3-cyano-1-(cyclopropylmethyl)-6-(2,2-difluoroethyl)-1H-indol-2-yl]-N-(1,3-difluoropropan-2-yl)pyrimidine-5-sulfonamide] returned a melting point of 180 to 188 °C. Moreover, in series [1], the IC50 is less than 500 nM.
`COc1ccc2c(c1)c(C#N)c(-c1ncc(S(=O)(=O)NC(CF)CF)cn1)n2C1CCCC1` [compound 572, 2-(3-cyano-1-cyclopentyl-5-methoxy-1H-indol-2-yl)-N-(1,3-difluoropropan-2-yl)pyrimidine-5-sulfonamide]: the melting point is 200 to 202 °C. For the same compound, the IC50 in series [1] was less than 500 nM.
For `CC(C)NS(=O)(=O)c1ccc(-c2c(C#N)c3ccc(C#N)cc3n2CC2CC2)nc1` [compound 348, 6-[3,6-dicyano-1-(cyclopropylmethyl)-1H-indol-2-yl]-N-(propan-2-yl)pyridine-3-sulfonamide], in that order: 190 to 192 °C and 500 to 2000 nM.
For `N#Cc1c(-c2ccc(S(=O)(=O)NC(CF)CF)cn2)n(C2CCCCC2)c2cc(Cl)ccc12` [compound 89, 6-(6-chloro-3-cyano-1-cyclohexyl-1H-indol-2-yl)-N-(1,3-difluoropropan-2-yl)pyridine-3-sulfonamide], in that order: 203 to 207 °C and less than 500 nM.
The matching figures for `CCc1ccc2c(c1)c(C#N)c(-c1ccc(S(=O)(=O)NC(CF)CF)cn1)n2C1CCC1` [compound 258, 6-(3-cyano-1-cyclobutyl-5-ethyl-1H-indol-2-yl)-N-(1,3-difluoropropan-2-yl)pyridine-3-sulfonamide]: 163 to 164 °C and less than 500 nM.
In turn, `Cc1ccc2c(c1)c(C#N)c(-c1ccc(S(=O)(=O)N[C@@H](C)C(F)(F)F)cn1)n2C1CCCC1` [compound 345, 6-(3-cyano-1-cyclopentyl-5-methyl-1H-indol-2-yl)-N-[(2S)-1,1,1-trifluoropropan-2-yl]pyridine-3-sulfonamide] gave a melting point of 195 to 200 °C. Moreover, the half-maximal inhibitory concentration (IC50) in series [1] is less than 500 nM.
The matching figures for `CCc1cc2c(cc1F)c(C(N)=O)c(-c1ccc(S(=O)(=O)NC(C)(C)C(F)(F)F)cn1)n2C1CCCC1` [compound 871, 1-cyclopentyl-6-ethyl-5-fluoro-2-{5-[(1,1,1-trifluoro-2-methylpropan-2-yl)sulfamoyl]pyridin-2-yl}-1H-indole-3-carboxamide]: 185 to 188 °C and less than 500 nM.
The matching figures for `Cc1cc2c(cc1F)c(C#N)c(-c1ccc(S(=O)(=O)N[C@@H](C)C(F)(F)F)cn1)n2-c1ncccc1Cl` [compound 971, 6-[1-(3-chloropyridin-2-yl)-3-cyano-5-fluoro-6-methyl-1H-indol-2-yl]-N-[(2S)-1,1,1-trifluoropropan-2-yl]pyridine-3-sulfonamide]: 221 to 225 °C and 500 to 2000 nM.
Take `N#Cc1c(-c2ccc(S(=O)(=O)NC(CF)CF)cn2)n(C2CCC2)c2ccc(OC(F)(F)F)cc12` [compound 25, 6-[3-cyano-1-cyclobutyl-5-(trifluoromethoxy)-1H-indol-2-yl]-N-(1,3-difluoropropan-2-yl)pyridine-3-sulfonamide]: the melting point was 179 to 182 °C. Also, the concentration for half-maximal inhibition (IC50) in series [1] was in the range of 500 to 2000 nM.
For `Cc1cc2c(C#N)c(-c3ccc(S(=O)(=O)N[C@@H](C)C(F)(F)F)cn3)n(C3CCC3)c2cc1F` [compound 492, 6-(3-cyano-1-cyclobutyl-6-fluoro-5-methyl-1H-indol-2-yl)-N-[(2S)-1,1,1-trifluoropropan-2-yl]pyridine-3-sulfonamide], in that order: 185 to 190 °C and less than 500 nM.
Compound `Cc1cc2c(cc1F)c(C(N)=O)c(-c1ccc(S(=O)(=O)N[C@H](C)C(F)(F)F)cn1)n2C1CCCCC1` [compound 716, 1-cyclohexyl-5-fluoro-6-methyl-2-(5-{[(2R)-1,1,1-trifluoropropan-2-yl]sulfamoyl}pyridin-2-yl)-1H-indole-3-carboxamide] displayed a melting point of 272 to 276 °C. Further, the IC50 in series [1] is less than 500 nM.
Consider `N#Cc1c(-c2ncc(S(=O)(=O)NC(CF)CF)cn2)n(C2CCC2)c2ccc(CF)cc12` [compound 377, 2-[3-cyano-1-cyclobutyl-5-(fluoromethyl)-1H-indol-2-yl]-N-(1,3-difluoropropan-2-yl)pyrimidine-5-sulfonamide], for which the melting point was in the range of 131 to 134 °C. The IC50 in series [1] is less than 500 nM.
The matching figures for `Cc1cc2c(cc1F)c(C#N)c(-c1ccc(S(=O)(=O)N[C@@H](C)C(F)(F)F)cn1)n2-c1ccccn1` [compound 541, 6-[3-cyano-5-fluoro-6-methyl-1-(pyridin-2-yl)-1H-indol-2-yl]-N-[(2S)-1,1,1-trifluoropropan-2-yl]pyridine-3-sulfonamide]: 160 to 164 °C and less than 500 nM.
Turning to `C[C@H](NS(=O)(=O)c1ccc(-c2c(C#N)c3cc(F)c(OC(F)F)cc3n2CCO)nc1)C(F)(F)F` [compound 940, 6-[3-cyano-6-(difluoromethoxy)-5-fluoro-1-(2-hydroxyethyl)-1H-indol-2-yl]-N-[(2S)-1,1,1-trifluoropropan-2-yl]pyridine-3-sulfonamide], the melting point is 203 to 208 °C. Further, in series [1], the IC50 lay in the range of 500 to 2000 nM.
The matching figures for `Cc1cc2c(cc1F)c(C#N)c(-c1ccc(S(=O)(=O)N[C@@H](C)C(F)(F)F)cn1)n2-c1ccncn1` [compound 896, 6-[3-cyano-5-fluoro-6-methyl-1-(pyrimidin-4-yl)-1H-indol-2-yl]-N-[(2S)-1,1,1-trifluoropropan-2-yl]pyridine-3-sulfonamide]: 214 to 219 °C and less than 500 nM.
`CCc1cc2c(cc1F)c(C#N)c(-c1ccc(S(=O)(=O)N[C@H](C)C(F)(F)F)cn1)n2C1CCC1` [compound 641, 6-(3-cyano-1-cyclobutyl-6-ethyl-5-fluoro-1H-indol-2-yl)-N-[(2R)-1,1,1-trifluoropropan-2-yl]pyridine-3-sulfonamide]: the melting point was in the range of 199 to 199.5 °C. Moreover, in series [1], the 50% inhibitory concentration (IC50) is less than 500 nM.

For the origin of these results see patent publication US8735414B2 (priority 2009, dated 2014).
